Assay results from patent US20140377219A1, “HIV INHIBITORS” (New york Blood Center, Inc., priority 2011, published 2014).
Like-named read-outs stand apart in the source and are kept apart here.

Key:
[1] = system: pNL4-3 gp41 (36G) V38E, N42S (fusion resistant isolate); type: cell-based, HIV-1; settings: subtype B, MT-2, X4, fusion resistant isolate, read-out: IC50 (μM) ± S.D., inhibitory activity on infection
[2] = system: Panel C env ZM-214M.PL15, SVPC7; type: cell-based; settings: TZM-bl, read-out: IC50 (μM) ± S.D., antiviral activity against HIV-1 envelope pseudoviruses
[3] = system: primary HIV-1 isolate 93TH060 (subtype E, R5); assay: Neutralization assay in PBMC (p24 ELISA); settings: read-out: IC50 (μM) ± S.D., inhibitory activity on infection; 93TH060, subtype E, PBMC, R5, primary isolate
Procedure: (§1) The inhibitory activity of small molecules on infection by primary HIV-1 isolates was determined. PBMCs were isolated from the blood of healthy donors at the New York Blood Center by standard density-gradient centrifugation using Histopaque-1077 (Sigma-Aldrich). The cells were cultured at 37° C. for 2 h. Non-adherent cells were collected and resuspended at 5×10^6 cells/ml in RPMI-1640 medium containing 10% (v/v) fetal bovine serum, 5 μg/ml of phytohemagglutinin, and 100 U/ml of IL-2 (Sigma-Aldrich), followed by incubation at 37° C. for three days.

[4] = system: HIV-1 SF2; assay: Multi-cycle neutralization assay in MT-2 cells; settings: read-out: IC50 (μM) ± S.D., inhibitory activity on infection; SF2, subtype B, MT-2, R5X4, laboratory strain
[5] = system: primary HIV-1 isolate 93MW959 (clade C, R5); assay: Neutralization assay in PBMC (p24 ELISA); settings: read-out: IC50 (μM) ± S.D., inhibitory activity on infection, 93MW959, subtype C
Procedure: as §1

[6] = system: primary HIV-1 isolate 93IN101 (subtype C, R5); assay: Neutralization assay in PBMC (p24 ELISA); settings: read-out: IC50 (μM) ± S.D., inhibitory activity on infection; 93IN101, subtype C, PBMC, R5, primary isolate
Procedure: as §1

[7] = system: Panel C env ZM-109F.PB4, SVPC13; type: cell-based; settings: TZM-bl, read-out: IC50 (μM) ± S.D., antiviral activity against HIV-1 envelope pseudoviruses
[8] = system: Panel C env ZM-197M.PB7, SVPC6; type: cell-based; settings: TZM-bl, read-out: IC50 (μM) ± S.D., antiviral activity against HIV-1 envelope pseudoviruses
[9] = system: Panel C env CAP-45.2.00.G3, SVPC16; type: cell-based; settings: TZM-bl, read-out: IC50 (μM) ± S.D., antiviral activity against HIV-1 envelope pseudoviruses
[10] = system: primary HIV-1 isolate 92UG031 (subtype A, R5); assay: Neutralization assay in PBMC (p24 ELISA); settings: read-out: IC50 (μM) ± S.D., inhibitory activity on infection; 92UG031, subtype A, PBMC, R5, primary isolate
Procedure: as §1

[11] = system: HIV-1 RF/L-323-12-3 (protease resistant isolate); assay: Multi-cycle neutralization assay in MT-2 cells; settings: read-out: IC50 (μM) ± S.D., inhibitory activity on infection; HIV-1 RF/L-323-12-3, subtype B, MT-2, X4, protease resistant isolate
[12] = system: HIV-1 BaL; assay: Neutralization assay in PBMC (p24 ELISA); settings: read-out: IC50 (μM) ± S.D., inhibitory activity on infection, BaL, subtype B, R5, laboratory strain
Procedure: (§2) PBMCs were isolated from the blood of healthy donors at the New York Blood Center by standard density-gradient centrifugation using Histopaque-1077 (Sigma-Aldrich). The cells were cultured at 37° C. for 2 h. Non-adherent cells were collected and resuspended at 5×10^6 cells/ml in RPMI-1640 medium containing 10% (v/v) fetal bovine serum, 5 μg/ml of phytohemagglutinin, and 100 U/ml of IL-2 (Sigma-Aldrich), followed by incubation at 37° C. for three days.

[13] = system: laboratory-adapted HIV-1 IIIB strain
Procedure: In brief, 1×10^4 MT-2 cells were infected with HIV-1 at 100 TCID50 (50% tissue culture infective dose) (0.01MOI) in 200 μl medium in the presence or absence of small molecules at graded concentrations and incubated overnight. The culture supernatants were then removed and replaced with fresh media. On the fourth day post-infection, 100 μl of culture supernatants were collected from each well, mixed with equal volume of 5% Triton X-100 and tested for p24 antigen by sandwich-ELISA. The percent inhibition of p24 production and IC50 values were calculated by the GraphPad Prism software (GraphPad Software Inc.).

[14] = system: primary HIV-1 isolate BCF02 (Group 0, R5); assay: Neutralization assay in PBMC (p24 ELISA); settings: read-out: IC50 (μM) ± S.D., inhibitory activity on infection; BCF02, Group 0, PBMC, R5, primary isolate
Procedure: as §1

[15] = system: Panel C env ZM-53M.PB12, SVPC11; type: cell-based; settings: TZM-bl, read-out: IC50 (μM) ± S.D., antiviral activity against HIV-1 envelope pseudoviruses
[16] = system: Panel C env CAP-210.2.00.E8, SVPC17; type: cell-based; settings: TZM-bl, read-out: IC50 (μM) ± S.D., antiviral activity against HIV-1 envelope pseudoviruses
[17] = system: HIV-1 SF162; assay: Neutralization assay in PBMC (p24 ELISA); settings: read-out: IC50 (μM) ± S.D., inhibitory activity on infection; SF162, subtype B, PBMC, R5, laboratory strain
Procedure: as §2

[18] = system: Panel B env SC422661, clone B (SVPB8); type: cell-based; settings: TZM-bl, read-out: IC50 (μM) ± S.D., antiviral activity against HIV-1 envelope pseudoviruses
[19] = system: Panel B env pCAAN5342 clone A2 (SVPB19); type: cell-based; settings: TZM-bl, read-out: IC50 (μM) ± S.D., antiviral activity against HIV-1 envelope pseudoviruses
[20] = system: Panel C env Du422, clone 1 (SVPC5); type: cell-based; settings: TZM-bl, read-out: IC50 (μM) ± S.D., antiviral activity against HIV-1 envelope pseudoviruses
[21] = system: Panel C env ZM-233M.PB6, SVPC9; type: cell-based; settings: TZM-bl, read-out: IC50 (μM) ± S.D., antiviral activity against HIV-1 envelope pseudoviruses
[22] = system: Panel C env Du172, clone 17 (SVPC4); type: cell-based; settings: TZM-bl, read-out: IC50 (μM) ± S.D., antiviral activity against HIV-1 envelope pseudoviruses
[23] = system: MT-2 cells; assay: Cytotoxicity in MT-2 cells (XTT); type: cell-based
Outline: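 XTT viability read-out: MT-2 cells (10^5 cells/ml) incubated with graded compound concentrations four days at 37° C; PBMC at 5×10^5 cells/ml, measured after seven days. CC50 derived from percentage cytotoxicity.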

[24] = system: Panel C env ZM-249M.PL1, SVPC10; type: cell-based; settings: TZM-bl, read-out: IC50 (μM) ± S.D., antiviral activity against HIV-1 envelope pseudoviruses
[25] = system: HIV-1 89.6; assay: Neutralization assay in PBMC (p24 ELISA); settings: read-out: IC50 (μM) ± S.D., inhibitory activity on infection; 89.6, subtype B, PBMC, R5X4, laboratory strain
Procedure: as §1

[26] = read-out: IC50 (μM) ± S.D., inhibitory activity on infection, IIIB, subtype B, MT-2, X4, laboratory strain
[27] = read-out: MT-2 Cells IC50 (μM ± SD), multi-cycle assay, MT-2 cells, HIV-1 IIIB
[28] = MT-2 cells, XTT, four days, read-out: MT-2 Cells CC50

Row | Structure (SMILES) | IC50 [1] | IC50 [2] | IC50 [3] | IC50 [4] | IC50 [5] | IC50 [6] | IC50 [7] | IC50 [8] | IC50 [9] | IC50 [10] | IC50 [11] | IC50 [12] | IC50 [13, 26] | IC50 [13, 27] | IC50 [14] | IC50 [16] | IC50 [17] | IC50 [19] | IC50 [20] | IC50 [24] | other results
1 | Cc1nc(C(NC(=O)C(=O)Nc2ccc(Cl)cc2)C2CCCCN2)sc1CO.Cl (stereo not shown) [Compound 6, N^1-(4-chlorophenyl)-N^2-((5-(hydroxymethyl)-4-methylthiazol-2-yl)(piperidin-2-yl)methyl)oxalamide.HCl] | 5.8 ± 0.3 µM | > 21 µM | 7.2 ± 0.6 µM | 5.7 ± 0.9 µM | > 43.5 µM | > 87 µM | 1.2 ± 0.2 µM | > 21 µM | 4.7 ± 0.95 µM | 9.3 ± 0.7 µM | 14.7 ± 2.3 µM | 35.8 ± 1.2 µM | 4.7 ± 0.6 µM | 4.7 ± 0.6 µM | ~87 µM | 15.1 ± 1.5 µM | 12.7 ± 0.7 µM | 2.3 ± 0.3 µM | 15.9 ± 0.4 µM | 1.5 ± 0.6 µM | IC50 [15]: 2.4 ± 0.2 µM; IC50 [18]: 2.3 ± 0.2 µM; IC50 [21]: 5.6 ± 1.3 µM; IC50 [22]: 3 ± 0.38 µM; % toxicity at that dose (number in parenthesis), MT-2 cells [23]: 40%; CC50 [23]: > 108 µM
2 | Cc1ccc(NC(=O)C(=O)NC(c2nc(C)c(CO)s2)C2CCCCN2)cc1F.Cl (stereo not shown) [Compound 28, N^1-(3-fluoro-4-methylphenyl)-N^2-((5-(hydroxymethyl)-4-methylthiazol-2-yl)(piperidin-2-yl)methyl)oxalamide.HCl] | 4.6 ± 0.4 µM | > 42 µM | 9.9 ± 1.8 µM | 38.7 ± 4.5 µM | > 42.5 µM | > 85 µM | > 42 µM | > 42 µM |  | 13.4 ± 1.2 µM | 4.8 ± 0.9 µM | 23.7 ± 0.3 µM | 3.7 ± 0.7 µM | 5.3 ± 0.5 µM | > 85 µM | > 42 µM | 8.1 ± 1.2 µM | 1.5 ± 0.1 µM | > 42 µM | > 42 µM | IC50 [25]: 3.9 ± 0.5 µM; IC50 [15]: > 42 µM; IC50 [18]: 2.5 ± 0.3 µM; CC50 ([23]; MT-2 cells, XTT, four days, listed as NBD-11008, read-out: MT-2 Cells CC50): ~85 µM; CC50 [23, 28]: > 88 µM; % toxicity at that dose (number in parenthesis), MT-2 cells ([23]; at the dose given as CC50 bound): 30%
3 | Cc1nc(C(NC(=O)C(=O)Nc2ccc(Cl)c(F)c2)C2CCCCN2)sc1CCO.Cl (stereo not shown) [Compound 39, N^1-(4-chloro-3-fluorophenyl)-N^2-((5-(2-hydroxyethyl)-4-methylthiazol-2-yl)(piperidin-2-yl)methyl)oxalamide.HCl] | 3.9 ± 0.3 µM | 2.9 ± 0.4 µM | 13.7 ± 0.9 µM | 15.8 ± 1.7 µM |  | ~81.5 µM | 3 ± 0.1 µM | 2.3 ± 0.2 µM | 3.4 ± 0.4 µM | 12.9 ± 1.5 µM | 6.9 ± 1 µM | 24.9 ± 4.5 µM | 3.5 ± 0.9 µM | 3.5 ± 0.9 µM | 65.1 ± 3.5 µM | 3.2 ± 0.6 µM | 11.9 ± 1 µM | 0.8 ± 0.3 µM | 2.5 ± 0.1 µM | 2.5 ± 0.2 µM | IC50 [25]: 6.2 ± 0.3 µM; IC50 [18]: 1.3 ± 0.1 µM; IC50 [21]: 2.5 ± 0.5 µM; IC50 [22]: 5.3 ± 0.2 µM
4 | CC1(C)CC(NC(=O)C(=O)Nc2ccc(Cl)cc2)CC(C)(C)N1 [NBD-556, reference compound] | 11 ± 0.9 µM | 6.5 ± 1.3 µM | > 45 µM | ≥ 118 µM | 57.2 ± 8.7 µM |  | 10.4 ± 3.5 µM | 7.9 ± 0.9 µM | 7.9 ± 0.87 µM |  | > 59 µM | ≥ 118 µM | 6.5 ± 0.1 µM | 8 ± 0.2 µM |  | 13.3 ± 1.3 µM | 48.9 ± 7.3 µM | 2.4 ± 0.3 µM | 11.8 ± 2.9 µM | 6.1 ± 1.7 µM | IC50 [25]: 4.8 ± 1 µM; IC50 [15]: 13.4 ± 0.06 µM; IC50 [21]: 4.9 ± 1.13 µM; IC50 [22]: 4.2 ± 0.23 µM; CC50 ([23]; MT-2 cells, XTT, four days, listed as 1, read-out: MT-2 Cells CC50): ~150 µM; CC50 [23, 28]: 280 µM
